From patent publication US5273986A, “Cycloalkylthiazoles” (Hoffmann-La Roche Inc., priority 1992, dated 1993) come the findings set out here.

Assay [1] has as its system LTD4-induced bronchoconstriction. Nature of the assay: Antagonism of LTD4-induced bronchoconstriction in guinea pigs. In kind it is in vivo, guinea pig (male, Hartley strain). Conditions: for ED50 / inhibition in vivo at 1 mg/kg: Cavia porcellus; for inhibition in vivo at 1 mg/kg: read-out: percent inhibition at 1 mg/kg p.o., LTD4-induced bronchoconstriction (ID50 not determined). The method, then:
Male guinea pigs (Hartley strain, Charles River) weighing 400-600 g were anesthetized with urethane (2 g/kg) intraperitoneally, and a polyethylene cannula was inserted into the jugular vein for intravenous drug administration. Tracheal pressure (cm of H2 O) was recorded from a Statham pressure transducer (P 32 AA). Propranolol was administered 5 minutes prior to challenge with LTD4. Two minutes later spontaneous breathing was arrested with succinylcholine chloride (1.2 mg/kg) administered intravenously, and the animals were ventilated with a Harvard (Model 680) small animal respirator set at 40 breaths/min and a 4.0 cc stroke volume. Control vehicle (DMSO) or test compound was administered through the cannula into the jugular vein 1 minute before the animals were challenged with a maximum constrictory dose of LTD4 ([…] I.V.) given intravenously. The change in tracheal pressure was averaged for control and drug-treated animals and percent inhibition was calculated. For determination of oral activity, animals were dosed with test compound or vehicle (PEG400) two hours prior to challenge with LTD4 ([…], i.v.).
The relative potency of test compounds administered by the intravenous and oral route was determined by administering increasing doses of test compound at a fixed pretreatment time. The median inhibitory dose (ID50 value) was determined by linear regression of log dose-responsecurves generated by at least 3 doses that caused statistically significant inhibition between 10 and 90%. The correlation coefficient for the regression line was always greater than 0.95. For determination of the time-course of inhibition for various compounds, the time between administration of compound and challenge with LTD4 was varied. Durations of action were defined as the time for inhibitory activity to decrease to 50%.

Assay [2] has as its target T1, LTD4 receptor (Cavia porcellus, UniProt Q2NNR5).
T1 construct: A lung homogenate was prepared from guinea pig lung membranes; from tissue; host or cells: guinea pig lung membranes
T1 sequence (Q2NNR5 1-340): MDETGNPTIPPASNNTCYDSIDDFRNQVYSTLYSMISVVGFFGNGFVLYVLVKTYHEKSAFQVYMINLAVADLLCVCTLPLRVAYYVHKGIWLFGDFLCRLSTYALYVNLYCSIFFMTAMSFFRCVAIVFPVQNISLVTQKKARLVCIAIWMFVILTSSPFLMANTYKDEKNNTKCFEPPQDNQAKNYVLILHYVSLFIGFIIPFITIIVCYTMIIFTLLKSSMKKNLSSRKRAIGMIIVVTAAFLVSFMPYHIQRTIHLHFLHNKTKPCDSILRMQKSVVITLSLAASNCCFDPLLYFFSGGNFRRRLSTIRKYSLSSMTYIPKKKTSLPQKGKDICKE
Kind of assay: LTD4 receptor ligand binding assay (inhibition of [3H]LTD4 specific binding, guinea pig lung membranes). Conditions: 20° C., 30 min. The protocol: A lung homogenate was prepared from guinea pig lung membranes and was resuspended in buffer containing 10 mM Tris.HCl (pH 7.5) (Hogaboom et al., Hogaboom, G. K., et al: Peptidoleukotrienes: distinct receptors for leukotriene C4 and D4 in the guinea pig lung. Biochem. Biophys. Res. Commun. 116: 1136-1143, 1983). Optimum assay conditions were determined with an assay mixture containing: 10 mM Tris.HCl (pH 7.5); 0.1% bovine serum albumin (BSA); 1 mM glycine; 1 mM cysteine; 3.5 nM [^3 H]LTD4 and the membrane preparation ([…] protein) in a final volume of […]. The incubation was carried out at 20° C. for 30 minutes. At 20° C., binding increased linearly with protein concentration, reached equilibrium in 20 minutes, was saturable, and was reversible upon addition of 1 mM unlabelled LTD4. Separation of bound from free [^3 H]LTD4 as performed by rapid filtration on GF/C glass fiber filters (Whatman International Ltd., Maidstone, England) and washing with two 4-ml aliquots of Tyrode solution (0.9 g/100 ml NaCl; 0.02 g/100 ml KCl; 0.02 g/100 ml CaCl2; 0.01 g/100 ml MgCl2; 0.1 g/100 ml glucose; 0.1 g/100 ml NaHCO3; 0.005 g/100 ml NaH2 PO4) containing 0.1% BSA. Radioactivity remaining on the filters was measured in 10 ml of Aquasol. Specific binding, was defined as that displaced by 1 mM unlabelled LTD4, and was 95% of total binding.
The inhibition of [^3 H]LTD4 specific binding by an antagonist is related to the LTD4 content of that sample by regression analysis from a "standard curve" of the inhibition of [^3 H]LTD4 specific binding by nonlabeled LTD4. The median inhibitory concentration (IC50 value) was determined by linear regression of log concentration-response curves generated by at least 3 concentrations that caused statistically significant inhibition between 10 and 90%. Results are expressed as mean±S. E. M. (standard error of the mean) of n independent experiments (separate receptor batches) conducted in duplicates.

Where [3] appears, read: iv, 1 min, I.V., compound 1 minute before LTD4 challenge, read-out: ID50 I.V., LTD4-induced bronchoconstriction.
Where [4] appears, read: po, 2 h, p.o., 1 mg/kg, compound two hours prior to LTD4 challenge.
Setting [5] is: po, 2 h, p.o., compound two hours prior to LTD4 challenge, read-out: ID50 p.o., LTD4-induced bronchoconstriction.

Molecules are shown by their SMILES. Read-outs that look alike come from different tables or passages of the source.

As a reminder, the IC50 is the concentration that gives 50% inhibition.

As to `CC(C)c1csc(/C=C/c2cc(NC(=O)Cc3ccccc3C(=O)O)ccc2Cl)n1` [Example 17e, (E)-2-[2-[4-Chloro-3-[2-[4-(1-methylethyl)-2-thiazolyl]ethenyl]phenylamino]-2-oxoethyl]benzoic acid], the ED50 in assay [1] (setting [3]) was 0.28 mg/kg. Also, in assay [1] (setting [4]), the inhibition in vivo at 1 mg/kg was 26 ± 7%. Besides, in assay [2], the IC50 was 0.9 µM.

Consider `CC(C)c1csc(/C=C/c2cccc(NC(=O)Cc3cccc(CC(=O)O)c3)c2)n1` [Example 15, (E)-3-[2-[3-[2-[4-(1-Methylethyl)-2-thiazolyl]ethenyl]phenylamino]-2-oxoethyl]phenylacetic acid], for which, in assay [1] (I.V., 1 mg/kg, compound 1 minute before LTD4 challenge), the “percent inhibition at 1 mg/kg I.V., LTD4-induced bronchoconstriction (ID50 not determined)” value was 40 ± 7%. In assay [2], this molecule displayed an IC50 of 1 µM.

For `O=C(Cc1ccccc1C(=O)O)Nc1cccc(/C=C/c2nc(C3CCC3)cs2)c1` [Example 3, (E)-2-[2-[3-[2-[4-(Cyclobutyl)-2-thiazolyl]ethenyl]phenylamino]-2-oxoethyl]benzoic acid], the ED50 in assay [1] (setting [3]) amounted to 0.01 mg/kg; in assay [1] (setting [5]), 0.22 mg/kg. Moreover, the IC50 in assay [2] turned out to be 0.003 µM.

As to `CC(C)c1csc(/C=C/c2cccc(NC(=O)Cc3ccccc3CC(=O)O)c2)n1` [Example 14, (E)-2-[2-[3-[2-[4-(1-Methylethyl)-2-thiazolyl]ethenyl]phenylamino]-2-oxoethyl]benzene acetic acid], the ED50 in assay [1] (setting [3]) is 0.05 mg/kg. In assay [1] (setting [4]), the inhibition in vivo at 1 mg/kg is 41 ± 8%. Further, the IC50 in assay [2] is 1 µM.

`O=C(Cc1ccccc1C(=O)O)Nc1cccc(/C=C/c2nc(C3CC3)cs2)c1` [Example 2, (E)-2-[2-[3-[2-[4-(Cyclopropyl)-2-thiazolyl]ethenyl]phenylamino]-2-oxoethyl]benzoic acid]: the ED50 amounted to 0.01 mg/kg in assay [1] (setting [3]) and 0.22 mg/kg in assay [1] (setting [5]). Also, the IC50 in assay [2] amounted to 0.003 µM.

Turning to `CC(C)c1csc(/C=C/c2cccc(NC(=O)Cc3ccccc3C(=O)O)c2)n1` [Example 1, (E)-2-[2-[3-[2-[4-(1-Methylethyl)-2-thiazolyl]ethenyl]phenylamino]-2-oxoethyl]benzoic acid], the ED50 was 0.008 mg/kg in assay [1] (setting [3]) and 0.5 mg/kg in assay [1] (setting [5]). This molecule also yielded an IC50 in assay [2] of 0.004 µM.

In the case of `O=C(O)Cc1ccccc1CC(=O)Nc1cccc(/C=C/c2nc(C3CCC3)cs2)c1` [Example 13, (E)-2-[2-[3-[2-[4-(cyclobutyl)-2-thiazolyl]ethenyl]phenylamino]-2-oxoethyl]benzeneacetic acid], the ED50 in assay [1] (setting [3]) is 0.01 mg/kg; in assay [1] (setting [5]), 0.78 mg/kg. The IC50 in assay [2] amounted to 1 µM.
